What was measured:
[1] = target: N-glycosylase/DNA lyase (Homo sapiens) (UniProt O15527);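 also: OGG1 cleavage of a quenched duplex DNA oligonucleotide, coupled to APE1 for strand incision, read as fluorescence at 594 nm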
Description: Inhibition of OGG1 by quantifying inhibition of OGG1-mediated cleavage and dissociation of quenched duplex DNA oligonucleotides, measured as fluorescence at 594 nm. To generate a functional strand incision and increase turn-over this assay is coupled to APE1.

[2] = target: Endonuclease 8-like 1 (Homo sapiens) (UniProt Q96FI4); settings: Hit No;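 also: fluorescence at 594 nm from quenched duplex DNA oligonucleotides released by NEIL1 cleavage and strand separation, reported as reduction of this enzyme activity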
Description: Inhibition of NEIL1 by quantifying inhibition of NEIL1-mediated cleavage and dissociation of quenched duplex DNA oligonucleotides, measured as fluorescence at 594 nm.

[3] = target: Methyl-CpG-binding domain protein 4 (Homo sapiens) (UniProt O95243); settings: Hit No;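 also: MBD4 activity read as fluorescence at 594 nm from cleavage and release of a quenched duplex DNA oligonucleotide, with APE1 coupled to incise the strand and raise turnover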
Chain of Methyl-CpG-binding domain protein 4 (Homo sapiens) (O95243 whole entry, the tested form may be a part): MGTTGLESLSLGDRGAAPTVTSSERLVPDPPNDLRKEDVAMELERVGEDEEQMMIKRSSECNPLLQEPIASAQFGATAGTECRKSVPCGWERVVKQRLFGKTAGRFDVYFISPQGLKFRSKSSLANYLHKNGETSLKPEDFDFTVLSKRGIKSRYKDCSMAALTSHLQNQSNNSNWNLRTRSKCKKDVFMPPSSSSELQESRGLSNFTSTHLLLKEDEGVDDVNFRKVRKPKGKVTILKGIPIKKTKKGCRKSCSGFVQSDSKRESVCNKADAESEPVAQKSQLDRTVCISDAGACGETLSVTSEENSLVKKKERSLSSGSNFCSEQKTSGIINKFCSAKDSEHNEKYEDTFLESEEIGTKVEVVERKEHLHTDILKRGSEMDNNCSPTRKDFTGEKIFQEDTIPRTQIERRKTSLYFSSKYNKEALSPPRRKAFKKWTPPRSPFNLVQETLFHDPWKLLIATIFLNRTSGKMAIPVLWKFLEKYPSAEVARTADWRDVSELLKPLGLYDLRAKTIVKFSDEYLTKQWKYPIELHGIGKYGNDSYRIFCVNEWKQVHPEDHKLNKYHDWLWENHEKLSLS
Description: Inhibition of MBD4 by quantifying inhibition of MBD4-mediated cleavage and dissociation of quenched duplex DNA oligonucleotides, measured as fluorescence at 594 nm. To generate a functional strand incision and increase turn-over this assay is coupled to APE1.

[4] = target: T1, Endonuclease 8-like 2 (Homo sapiens) (UniProt Q969S2); settings: Hit No;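 also: fluorescence at 594 nm reports NEIL2 cutting and release of a quenched double-stranded DNA oligo substrate, reduced signal read as inhibition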
T1 sequence (whole entry): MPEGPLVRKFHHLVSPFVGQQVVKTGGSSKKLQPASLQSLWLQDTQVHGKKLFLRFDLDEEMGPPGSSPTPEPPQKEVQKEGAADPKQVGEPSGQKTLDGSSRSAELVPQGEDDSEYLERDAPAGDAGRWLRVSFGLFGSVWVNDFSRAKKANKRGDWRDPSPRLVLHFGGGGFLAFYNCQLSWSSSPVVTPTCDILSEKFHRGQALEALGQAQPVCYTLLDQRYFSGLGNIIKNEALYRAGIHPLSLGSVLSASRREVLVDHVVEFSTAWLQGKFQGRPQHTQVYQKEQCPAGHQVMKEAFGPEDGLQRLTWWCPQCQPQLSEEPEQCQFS
Description: Inhibition of NEIL2 by quantifying inhibition of NEIL2-mediated cleavage and dissociation of quenched duplex DNA oligonucleotides, measured as fluorescence at 594 nm.

[5] = target: G/T mismatch-specific thymine DNA glycosylase (Homo sapiens) (UniProt Q13569); settings: Hit No;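 also: human TDG cleavage of quenched duplex DNA oligonucleotides coupled to APE1, strand release read as fluorescence at 594 nm, inhibition of TDG activity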
Chain of G/T mismatch-specific thymine DNA glycosylase (Homo sapiens) (Q13569 whole entry): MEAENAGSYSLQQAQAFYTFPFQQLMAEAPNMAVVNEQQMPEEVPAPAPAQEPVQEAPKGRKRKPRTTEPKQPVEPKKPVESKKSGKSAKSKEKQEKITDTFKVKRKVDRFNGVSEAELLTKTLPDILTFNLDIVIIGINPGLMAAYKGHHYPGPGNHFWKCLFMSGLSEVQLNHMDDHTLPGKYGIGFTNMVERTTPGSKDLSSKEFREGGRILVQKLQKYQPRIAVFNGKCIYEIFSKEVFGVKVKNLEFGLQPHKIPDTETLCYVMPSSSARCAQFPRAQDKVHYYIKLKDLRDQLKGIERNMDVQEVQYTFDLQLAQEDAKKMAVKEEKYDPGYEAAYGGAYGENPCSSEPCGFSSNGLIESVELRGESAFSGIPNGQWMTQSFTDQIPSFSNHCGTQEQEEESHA
Description: Inhibition of TDG by quantifying inhibition of TDG-mediated cleavage and dissociation of quenched duplex DNA oligonucleotides, measured as fluorescence at 594 nm. To generate a functional strand incision and increase turn-over this assay is coupled to APE1.

[6] = target: T2, Endonuclease III-like protein 1 (Homo sapiens) (UniProt P78549); settings: Hit No;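 also: enzyme assay tracking NTHL1 cutting and release of a quenched double-stranded DNA oligo substrate, read as fluorescence at 594 nm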
T2 sequence (whole entry): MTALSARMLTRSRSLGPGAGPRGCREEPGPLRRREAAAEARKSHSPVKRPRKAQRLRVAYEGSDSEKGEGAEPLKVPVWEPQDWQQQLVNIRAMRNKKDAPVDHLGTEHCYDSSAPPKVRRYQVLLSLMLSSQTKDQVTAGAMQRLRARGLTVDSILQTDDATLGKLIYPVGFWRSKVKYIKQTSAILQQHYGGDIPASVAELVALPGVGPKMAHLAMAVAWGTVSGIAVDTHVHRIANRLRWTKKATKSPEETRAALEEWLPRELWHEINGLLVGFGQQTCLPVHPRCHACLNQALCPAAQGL
Description: Inhibition of NTHL1 by quantifying inhibition of NTHL1-mediated cleavage and dissociation of quenched duplex DNA oligonucleotides, measured as fluorescence at 594 nm.

[7] = target: T3, Single-strand selective monofunctional uracil DNA glycosylase (Homo sapiens) (UniProt Q53HV7); settings: Hit No;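 also: enzymatic SMUG1 assay coupled with APE1, reading fluorescence at 594 nm released when a quenched double-stranded DNA oligonucleotide substrate is cleaved and separated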
T3 sequence (whole entry): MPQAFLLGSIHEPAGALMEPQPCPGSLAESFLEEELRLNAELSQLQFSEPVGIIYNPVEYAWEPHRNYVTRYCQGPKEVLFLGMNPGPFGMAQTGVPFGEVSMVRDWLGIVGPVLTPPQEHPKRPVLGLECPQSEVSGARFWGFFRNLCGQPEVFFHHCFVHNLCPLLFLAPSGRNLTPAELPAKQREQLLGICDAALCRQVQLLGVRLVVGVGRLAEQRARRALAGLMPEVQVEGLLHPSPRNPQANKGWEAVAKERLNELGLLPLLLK
Description: Inhibition of SMUG1 by quantifying inhibition of SMUG1-mediated cleavage and dissociation of quenched duplex DNA oligonucleotides, measured as fluorescence at 594 nm. To generate a functional strand incision and increase turn-over this assay is coupled to APE1.

[8] = target: Uracil-DNA glycosylase (Homo sapiens) (UniProt P13051); settings: Hit No;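 also: UNG excision on a quenched double-stranded DNA oligo probe, with APE1 added for strand incision and turnover, read as fluorescence at 594 nm as strands separate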
Chain of Uracil-DNA glycosylase (Homo sapiens) (P13051 whole entry): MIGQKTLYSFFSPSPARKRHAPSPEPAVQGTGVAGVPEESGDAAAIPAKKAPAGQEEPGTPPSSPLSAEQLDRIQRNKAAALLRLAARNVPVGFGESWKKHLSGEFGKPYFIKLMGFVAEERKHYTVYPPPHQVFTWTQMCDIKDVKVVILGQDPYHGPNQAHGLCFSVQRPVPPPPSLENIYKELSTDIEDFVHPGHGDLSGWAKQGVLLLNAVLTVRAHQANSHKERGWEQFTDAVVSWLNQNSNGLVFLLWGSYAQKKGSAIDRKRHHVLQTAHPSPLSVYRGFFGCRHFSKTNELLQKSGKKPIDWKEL
Description: Inhibition of UNG by quantifying inhibition of UNG-mediated cleavage and dissociation of quenched duplex DNA oligonucleotides, measured as fluorescence at 594 nm. To generate a functional strand incision and increase turn-over this assay is coupled to APE1.

[9] = Compound Concentration 1.0 uM, Hit No
[10] = Compound Concentration 10.0 uM, Hit No

Chain of Endonuclease 8-like 1 (Homo sapiens) (Q96FI4 whole entry, the tested form may be a part): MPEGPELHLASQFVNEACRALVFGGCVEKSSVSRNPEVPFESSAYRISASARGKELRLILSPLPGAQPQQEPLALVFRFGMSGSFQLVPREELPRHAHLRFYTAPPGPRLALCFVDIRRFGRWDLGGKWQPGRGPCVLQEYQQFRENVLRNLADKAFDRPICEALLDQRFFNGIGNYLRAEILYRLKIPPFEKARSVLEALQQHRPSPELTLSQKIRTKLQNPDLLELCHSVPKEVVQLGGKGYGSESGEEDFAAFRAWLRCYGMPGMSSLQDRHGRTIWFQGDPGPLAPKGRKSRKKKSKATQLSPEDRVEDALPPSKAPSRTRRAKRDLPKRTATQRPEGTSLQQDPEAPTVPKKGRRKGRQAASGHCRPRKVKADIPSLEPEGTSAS
Chain of N-glycosylase/DNA lyase (Homo sapiens) (O15527 whole entry): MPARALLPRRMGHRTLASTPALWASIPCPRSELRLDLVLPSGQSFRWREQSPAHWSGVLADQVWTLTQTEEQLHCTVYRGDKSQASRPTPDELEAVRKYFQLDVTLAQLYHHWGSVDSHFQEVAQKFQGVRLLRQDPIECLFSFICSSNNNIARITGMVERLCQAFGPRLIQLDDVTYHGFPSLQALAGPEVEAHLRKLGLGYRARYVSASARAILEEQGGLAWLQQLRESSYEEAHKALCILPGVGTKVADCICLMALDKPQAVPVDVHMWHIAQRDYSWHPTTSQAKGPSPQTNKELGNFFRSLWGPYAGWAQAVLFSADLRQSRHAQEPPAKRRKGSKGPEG

| Structure (SMILES) | inhibition [1, 9] [%] | inhibition ([2]; Compound Concentration 1.0 uM) [%] | inhibition ([3]; Compound Concentration 1.0 uM) [%] | inhibition ([4]; Compound Concentration 1.0 uM) [%] | inhibition ([5]; Compound Concentration 1.0 uM) [%] | inhibition ([6]; Compound Concentration 1.0 uM) [%] | inhibition ([7]; Compound Concentration 1.0 uM) [%] | inhibition ([8]; Compound Concentration 1.0 uM) [%] | inhibition [1, 10] [%] | inhibition ([2]; Compound Concentration 10.0 uM) [%] | inhibition ([3]; Compound Concentration 10.0 uM) [%] | inhibition ([4]; Compound Concentration 10.0 uM) [%] | inhibition ([5]; Compound Concentration 10.0 uM) [%] | inhibition ([6]; Compound Concentration 10.0 uM) [%] | inhibition ([7]; Compound Concentration 10.0 uM) [%] | inhibition ([8]; Compound Concentration 10.0 uM) [%] | inhibition ([1]; Compound Concentration 10.0 uM, Hit Yes) [%] |
| --- | --- | --- | --- | --- | --- | --- | --- | --- | --- | --- | --- | --- | --- | --- | --- | --- | --- |
| O=C(NOC[C@H](O)CO)c1ccc(F)c(F)c1Nc1ccc(I)cc1F | -3.87 | 6.08 | -6.44 | -6.76 | 39.9 | 5.67 | -2.11 | -1.39 | – | – | – | – | – | – | – | – | – |
| C[C@H](NC(=O)Nc1cc2[nH]ncc2c(CO)n1)c1ccccn1 | – | – | – | – | – | – | – | – | 0.354 | -8.95 | 22.3 | -4.78 | 51.6 | -0.801 | 21.2 | 4.22 | – |
| O=C(NCCCC1CCCCC1)c1ccc(CNC(=O)c2cnn(-c3ccccc3)c2C(F)(F)F)cc1 | 7.9 | -2.11 | 56.5 | -8.65 | 42.2 | – | 0.918 | -2.97 | 4.23 | – | – | – | 22.8 | -3.4 | 6.97 | 0.115 | – |
| COc1cccc(Cn2cc(C(=O)Nc3ccc(C)c(S(=O)(=O)N4CCOCC4)c3)c(-c3ccc(C)cc3)n2)c1 | – | – | – | – | – | – | – | – | 11.1 | -9.23 | 52.8 | -7.38 | 97.5 | 1.34 | 2.42 | -6.33 | – |
| COc1ccc(-c2ccc3cc(C(=O)O)ccc3c2)cc1C12CC3CC(CC(C3)C1)C2 | – | – | – | – | – | – | – | – | 34.6 | -5.14 | 48.6 | -6.1 | 39.5 | 6.6 | 7.63 | -6.23 | – |
| O=C1NCN(c2ccccc2)C12CCN(CC1COc3ccccc3O1)CC2 (stereo unspecified) | – | – | – | – | – | – | – | – | -5.28 | -5.84 | -3.04 | -3.23 | 2.98 | 2.66 | 1.76 | -8.19 | – |
| CN(C)CC#Cc1ccc(OCCCc2sc(N3CCc4cccc(C(=O)Nc5nc6ccccc6s5)c4C3)nc2C(=O)O)c(F)c1 | – | – | – | – | – | – | – | – | – | -0.896 | 47.6 | -4.83 | 40.4 | 0.0274 | 1.49 | 1.14 | 85.3 |
| CCCOc1ccc([C@H]2[C@H](C(=O)O)[C@@H](c3ccc4c(c3)OCO4)CN2CC(=O)Nc2c(CC)cccc2CC)cc1 | 10.2 | 2.13 | 70.6 | 0.276 | 57.6 | -5.23 | 23 | 6.95 | – | – | – | – | – | – | – | – | – |
| COC(=O)/C=C/c1cccc(N(Cc2ccc(-c3ccc(N(C)C)cc3)cc2)C(=O)C2CCCCC2)c1 | – | – | – | – | – | – | – | – | 7.66 | -4.23 | 53.7 | 3.34 | 44.3 | 7.26 | -4.57 | -3.03 | – |
| CCOC(=O)N1CCC(NS(=O)(=O)c2ccc(NC(=O)c3ccccc3C)c3ccccc23)CC1 | – | – | – | – | – | – | – | – | 6.16 | 16.8 | -4.31 | 3.73 | 4.53 | -6.86 | -0.636 | -2.92 | – |
| O=C(NCc1ncc(C(F)(F)F)cc1Cl)c1ccc2c(c1)C1(CCS(=O)(=O)CC1)[C@@H](C1CC1)N2S(=O)(=O)c1ccc(F)cc1 | – | – | – | – | – | – | – | – | 3.62 | -9.38 | 54.9 | -9.67 | 36.9 | -8.52 | 6.37 | -1.13 | – |
| CS(=O)(=O)c1cc(C2(NC(=O)c3cncc4c3cnn4-c3ccc(F)cc3)CC2)ccn1 | -1.05 | -0.745 | 53.3 | 1.04 | 54.5 | 0.0274 | 7.38 | 0.429 | – | – | – | – | – | – | – | – | – |
| Cc1ccc2nc(CNCCCOc3ccccc3)cc(O)c2c1 | – | – | – | – | – | – | – | – | 11.7 | 0.467 | 18.2 | -8.14 | 34.3 | 2 | 6.33 | -1.26 | – |
| CCCc1c(OCCCOc2ccc(OCC(=O)O)cc2)ccc(C(C)=O)c1O | – | – | – | – | – | – | – | – | 64.5 | -2.56 | 63.2 | 10.5 | 63 | 3.31 | 4.9 | 2.04 | – |
| Cn1c(C2(NC(=O)c3ccc(NCC4CCCCC4)nc3)CCC2)nc2ccc(/C=C/C(=O)O)cc21 | – | – | – | – | – | – | – | – | 15 | 2.89 | 65.1 | 5.38 | 57.9 | 3.97 | 15.9 | 7.23 | – |
| CNC(=O)c1cc(C(=O)NC2CC2)cn(Cc2ccccc2)c1=O | – | – | – | – | – | – | – | – | 10.8 | 8.49 | 59.4 | -1.25 | 29.8 | -1.29 | -2.99 | -2.05 | – |
| FC(F)(F)c1ccc2c(c1)nc(-c1cccnc1)n2C1CC1 | – | – | – | – | – | – | – | – | -3.61 | -3.77 | 61.4 | -9.67 | 39.3 | -7.86 | 3.68 | -0.0445 | – |
| CN(C)C(=O)Cn1cc(-c2nc([C@@](C)(c3ccc(-c4cnc(N)nc4)cc3)C3CC3)no2)cn1 | -4.49 | -7.71 | 54.5 | -2.79 | 41 | -9.18 | 14.1 | 6.25 | – | – | – | – | – | – | – | – | – |
| C=CC(=O)Nc1ccc2[nH]c(=O)n(C3CCN(Cc4ccc(-c5ccc6c(c5)NC(=O)CO6)cc4)CC3)c2c1 | – | – | – | – | – | – | – | – | 15.8 | 2.54 | 22.1 | -1.48 | 30.3 | -2.83 | 16.7 | 1.08 | – |
